{"source": "paper PMC8942850", "about": "“Boron clusters as broadband membrane carriers” (Nature, 2022)", "key": {"[1]": {"assay": "HPTS/DPX transport assay in zwitterionic EYPC vesicles", "type": "in vitro ADME", "settings": "for Y Conventional / Y Reverse: Extended Data Fig. 4d; for Ymax (%) maximal activity, carrier activity: 13 µM lipid, 10 mM Tris, 107 mM NaCl, HPTS fluorescence", "procedure": "The well-established HPTS/DPX assay, which uses 8-hydroxypyrene-1,3,6-trisulfonate (HPTS) and p-xylene-bis-pyridinium (DPX), was implemented to monitor peptide-transport activation (Fig. 2a). […] A surfactant (Triton X-100) was added at the end of the experiment (t = 600 s) to release all vesicle content and normalize the fluorescence intensity data.\nFig. 2 Carrier activity obtained from the HPTS/DPX assay. a, Schematic representation of the transport of otherwise impermeable analytes facilitated by superchaotropic cluster anions with encapsulated HPTS/DPX probe/quencher pair used for signalling. […] Concentrations of carrier and cargo, when fixed, were 40 and 20 µM, respectively, unless explicitly stated. Source data\nA thin lipid film was prepared by evaporating a lipid solution with a stream of nitrogen and then dried in vacuo overnight.\nFluorescence intensities were normalized to fractional emission as I(t) = (It − I0)/(I∞ − I0), where I0 = It before cluster addition and I∞ = It after lysis.\nIn the activator measurements, in which different activators were tested with the same cargo, the activator efficiency (Ea) is determined from their ability to activate the transport of an impermeable cargo molecule and is characterized by Ymax, its maximal activity, and EC50, the effective activator concentration. A potent activator reaches high Ymax at low EC50. To reflect both factors, the activator efficiency is defined as Ea = Ymax × (pEC50/fa), where pEC50 is the negative logarithm of EC50.\nIn the transport measurements, in which different types of cargo were tested with the same activator, the transport efficiency (Et) reports on the sensitivity of the cargo for being transported and is described by Ymax, the maximal activity, and EC50, the effective cargo concentration. An easily accessible cargo reaches high Ymax at low EC50. The transport efficiency is defined as a composition of both parameters according to Et = Ymax × (pEC50/ft), where pEC50 is the negative logarithm of EC50.\nExtended Data Fig. 3 Transport activity. a, Transport activity, Y, in EYPC⊃HPTS/DPX vesicles as a function of cluster concentration at constant cargo concentration (WR7, 20 µM). b, Transport activity, Y, for B12Br12^2− (40 µM) in EYPC⊃HPTS/DPX vesicles as a function of the concentration of different cargo types; red lines correspond to the resulting fit with the Hill equation. Source data"}, "[2]": {"assay": "Dynamic light scattering (vesicle size, cargo-carrier aggregates)", "type": "physicochemical", "procedure": "DLS experiments were carried out on a Malvern Instruments DTS Nano 2000 Zeta-Sizer.\nExtended Data Fig. 1 Assays testing for stability vs leakage of the vesicles. a, Response of the HPTS/DPX assay towards a membrane-disrupting agent and chemical structures of the fluorescent dye HPTS and the quencher DPX. In this assay, large unilamellar vesicles are loaded with the HPTS/DPX probe/quencher pair, such that the fluorescence of HPTS is quenched. […] The cluster B12I12^2− (red trace) was identified as lytic agent because the mere addition of the cluster led to a fluorescence increase. […] In this assay, large unilamellar vesicles are loaded with CF at high concentration, such that the fluorescence is quenched. […] The cluster B12I12^2− (red trace) was identified as lytic agent because its mere addition led to a fluorescence increase. […] In b, e and f, Triton X-100 was added at t = 600 s to induce vesicle lysis and allow data normalization. Source data"}, "[3]": {"system": "Escherichia coli Top10 strain", "assay": "Kanamycin A delivery in E. coli (OD570 growth)", "type": "cell-based", "settings": "incubation with the cluster alone, up to 1 mM", "procedure": "As a proof-of-principle, we investigated its potential to reduce the minimum inhibitory concentration of kanamycin A, an aminoglycoside antibiotic. Aminoglycosides function by binding to the bacterial 30S ribosomal subunit; consequently, effective passage through the cell wall and plasma membrane is essential for aminoglycosides to reach their intracellular targets. […]\nA preculture of E. coli Top10 cells was incubated overnight in LB medium with 50 µg ml^−1 streptomycin sulfate. […] After 18 h, the optical density at 570 nm, as an indicator of bacterial growth, was measured with a Tecan Infinite F200Pro microplate reader. Data were normalized for each concentration of B12Br12^2− relative to the control condition without antibiotic.\nSolid points indicate mean ± s.d. of three technical replicates. […] Cross-bars indicate mean ± s.d. of three independent experiments (two with technical triplicates, one with technical duplicates); values obtained in each experiment are represented by different shapes. c, Viability of HeLa cells after incubation with different doses of MMAF in the presence of 0, 5 and 10 μM B12Br12^2−. Solid points indicate mean ± s.d. of three technical replicates. d, Corresponding IC50 values of MMAF. […] Source data"}}, "data": [{"substance": "B12Br12^2−", "values": [{"measurement": "Ea activator efficiency", "setting": "[1]; Ea = Ymax × (pEC50/fa), fa = 20.6, WR7 (20 μM) cargo, 10% error (SD)", "value": 6.1}, {"measurement": "Y Conventional", "setting": "[1]; [B12Br12] 1.00E-04 M", "value": 0.7375}, {"measurement": "Y Reverse", "setting": "[1]; [B12Br12] 1.00E-04 M", "value": 0.7289}, {"measurement": "Y Conventional", "setting": "[1]; [B12Br12] 1.00E-05 M", "value": 0.08156}, {"measurement": "Y Reverse", "setting": "[1]; [B12Br12] 1.00E-05 M", "value": 0.07644}, {"measurement": "Y Conventional", "setting": "[1]; [B12Br12] 1.00E-08 M", "value": 0.00214}, {"measurement": "Y Reverse", "setting": "[1]; [B12Br12] 1.00E-08 M", "value": "9.09E-04"}, {"measurement": "Y Conventional", "setting": "[1]; [B12Br12] 1.20E-04 M", "value": 0.8093}, {"measurement": "Y Reverse", "setting": "[1]; [B12Br12] 1.20E-04 M", "value": 0.8173}, {"measurement": "Y Conventional", "setting": "[1]; [B12Br12] 1.50E-04 M", "value": 0.8756}, {"measurement": "Y Conventional", "setting": "[1]; [B12Br12] 2.00E-05 M", "value": 0.1885}, {"measurement": "Y Reverse", "setting": "[1]; [B12Br12] 2.00E-05 M", "value": 0.1615}, {"measurement": "Y Conventional", "setting": "[1]; [B12Br12] 2.50E-04 M", "value": 0.8813}, {"measurement": "Y Reverse", "setting": "[1]; [B12Br12] 2.50E-04 M", "value": 0.8905}, {"measurement": "Y Conventional", "setting": "[1]; [B12Br12] 3.00E-05 M", "value": 0.3307}, {"measurement": "Y Reverse", "setting": "[1]; [B12Br12] 3.00E-05 M", "value": 0.3469}, {"measurement": "Y Conventional", "setting": "[1]; [B12Br12] 4.00E-05 M", "value": 0.4335}, {"measurement": "Y Conventional", "setting": "[1]; [B12Br12] 5.00E-06 M", "value": 0.03975}, {"measurement": "Y Conventional", "setting": "[1]; [B12Br12] 6.00E-05 M", "value": 0.5294}, {"measurement": "Y Reverse", "setting": "[1]; [B12Br12] 6.00E-05 M", "value": 0.5266}, {"measurement": "Y Conventional", "setting": "[1]; [B12Br12] 8.00E-05 M", "value": 0.6371}, {"measurement": "Ymax (%) maximal activity, carrier activity", "setting": "[1]; carrier concentration varied, WR7 (20 μM) as common cargo, EYPC⊃HPTS/DPX vesicles, pH 7.4, Hill analysis, 10% error (SD) unless stated, n.a. = no detectable activity, d.l. = dye leakage, no determination possible", "value": "95 ± 5", "unit": "%"}, {"measurement": "Ymax (%) maximal activity, carrier activity", "setting": "[1]; carrier concentration varied, WR7 (20 μM) as common cargo, EYPC⊃HPTS/DPX vesicles, pH 7.4, Hill analysis, 10% error (SD) unless stated, n.a. = no detectable activity, d.l. = dye leakage, no determination possible, listed as brominated cluster", "value": 95, "unit": "%"}, {"measurement": "EC50", "setting": "[1]; read-out: EC50 (μM) effective carrier concentration to reach 50% of Ymax, carrier concentration varied, WR7 (20 μM) as common cargo, EYPC⊃HPTS/DPX vesicles, pH 7.4, Hill analysis, 10% error (SD) unless stated, n.a. = no detectable activity, d.l. = dye leakage, no determination possible", "value": 48, "unit": "µM"}, {"measurement": "DLS of combinations of cluster with the different cargos (aggregates)", "setting": "[2]", "value": "did not show any detectable signal of particles"}, {"measurement": "Bacterial survival, cluster alone", "setting": "[3]", "value": "did not affect bacterial survival"}]}]}
